# In patent US20230301300A1, “HERBICIDAL COMPOSITIONS” (SYNGENTA CROP PROTECTION AG, priority 2020, published 2023):
# What was measured:
# Assay type in all cases: in vivo
# Setaria faberi (SETFA) [1] = assay: B1 Post-Emergence Efficacy - Test 1; conditions: 1000 g/ha, after 13 days, five point scale
# In short: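 Post-emergence spray, 1000 g/ha, acetone/water 50:50 + 0.5% Tween 20, on plants 8 d after sowing in soil pots. Glasshouse 24/16° C., 14 h light, 65% humidity, watered twice daily. % damage at 13 d, five-point score.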
# [2] = test system: Amaranthus retroflexus (AMARE); assay: B2 Post-Emergence Efficacy - Test 2; conditions: 15 days after application, 0-100 scale
# In short: (§1)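 Glasshouse post-emergence test: plants sown in standard soil, grown 12 days (24/18 °C or 20/16 °C day/night; 16 h light; 65% humidity), sprayed once with an aqueous IF50-based formulation including 0.2% v/v Genapol X080. Visual injury, 0–100, recorded 15 days post-application.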
# Avena fatua (AVEFA) = assay: B2 Post-Emergence Efficacy - Test 2; conditions: 15 days after application, 0-100 scale
# In short: as §1
# Beta vulgaris (BEAVA) = assay: B2 Post-Emergence Efficacy - Test 2; conditions: 15 days after application, 0-100 scale
# In short: as §1
# Bidens pilosa (BIDPI) = assay: B2 Post-Emergence Efficacy - Test 2; conditions: 15 days after application, 0-100 scale
# In short: as §1
# [3] = test system: Brachiaria plantaginea (BRAPL); assay: B2 Post-Emergence Efficacy - Test 2; conditions: 15 days after application, 0=no damage, 100=total kill
# In short: as §1
# [4] = test system: Digitaria sanguinalis (DIGSA); assay: B2 Post-Emergence Efficacy - Test 2; conditions: 15 days after application, 0=no damage, 100=total kill
# In short: as §1
# Eleisine indica (ELEIN) = assay: B2 Post-Emergence Efficacy - Test 2; conditions: 15 days after application, 0=no damage, 100=total kill
# In short: as §1
# Galium aparine (GALAP) = assay: B2 Post-Emergence Efficacy - Test 2; conditions: 15 days after application, 0-100 scale
# In short: as §1
# Hordeum vulgare (HORVW) = assay: B2 Post-Emergence Efficacy - Test 2; conditions: 15 days after application, 0-100 scale
# In short: as §1
# [5] = test system: Ipomoea hederacea (IPOHE); assay: B2 Post-Emergence Efficacy - Test 2; conditions: 15 days after application, 0-100 scale
# In short: as §1
# Kochia scoparia (KSHSC) = assay: B2 Post-Emergence Efficacy - Test 2; conditions: 15 days after application, 0-100 scale
# In short: as §1
# Setaria faberi (SETFA) [6] = assay: B2 Post-Emergence Efficacy - Test 2; conditions: 15 days after application, 0=no damage, 100=total kill
# In short: as §1
# Sinapis arvensis (SINAR) = assay: B2 Post-Emergence Efficacy - Test 2; conditions: 15 days after application, 0-100 scale
# In short: as §1
# [7] = test system: Triticum aestivum (TRZAW); assay: B2 Post-Emergence Efficacy - Test 2; conditions: 15 days after application, 0-100 scale
# In short: as §1
# Veronica persica (VERPE) = assay: B2 Post-Emergence Efficacy - Test 2; conditions: 15 days after application, 0-100 scale
# In short: as §1
smiles,measurement,setting,value
"Cc1nn(C)c(=O)c(-c2c(F)ccc(Cl)c2CCc2ccc(Cl)cc2)c1OC(=O)C(C)C [Compound 1.089, [5-[3-chloro-2-[2-(4-chlorophenyl)ethyl]-6-fluoro-phenyl]-1,3-dimethyl-6-oxo-pyridazin-4-yl] 2-methylpropanoate]","percentage damage caused to the plant, SETFA",Setaria faberi (SETFA) [1],5 (5=80-100%)
same,Herbicidal activity AMARE,[2]; 15 g/Ha,80
same,Herbicidal activity AMARE,[2]; 30 g/Ha,80
same,Herbicidal activity AMARE,[2]; 60 g/Ha,90
same,Herbicidal activity AMARE,[2]; 125 g/Ha,100
same,Herbicidal activity AMARE,[2]; 250 g/Ha,100
same,Herbicidal activity AMARE,[2]; 500 g/Ha,100
same,Herbicidal activity AVEFA,Avena fatua (AVEFA); 15 g/Ha,30
same,Herbicidal activity AVEFA,Avena fatua (AVEFA); 30 g/Ha,70
same,Herbicidal activity AVEFA,Avena fatua (AVEFA); 60 g/Ha,70
same,Herbicidal activity AVEFA,Avena fatua (AVEFA); 125 g/Ha,80
same,Herbicidal activity AVEFA,Avena fatua (AVEFA); 250 g/Ha,90
same,Herbicidal activity AVEFA,Avena fatua (AVEFA); 500 g/Ha,90
same,Herbicidal activity BEAVA,Beta vulgaris (BEAVA); 15 g/Ha,90
same,Herbicidal activity BEAVA,Beta vulgaris (BEAVA); 30 g/Ha,80
same,Herbicidal activity BEAVA,Beta vulgaris (BEAVA); 60 g/Ha,80
same,Herbicidal activity BEAVA,Beta vulgaris (BEAVA); 125 g/Ha,80
same,Herbicidal activity BEAVA,Beta vulgaris (BEAVA); 250 g/Ha,90
same,Herbicidal activity BEAVA,Beta vulgaris (BEAVA); 500 g/Ha,90
same,Herbicidal activity BIDPI,Bidens pilosa (BIDPI); 15 g/Ha,70
same,Herbicidal activity BIDPI,Bidens pilosa (BIDPI); 30 g/Ha,60
same,Herbicidal activity BIDPI,Bidens pilosa (BIDPI); 60 g/Ha,70
same,Herbicidal activity BIDPI,Bidens pilosa (BIDPI); 125 g/Ha,80
same,Herbicidal activity BIDPI,Bidens pilosa (BIDPI); 250 g/Ha,80
same,Herbicidal activity BIDPI,Bidens pilosa (BIDPI); 500 g/Ha,100
same,"Herbicidal activity on a 0-100 scale, BRAPL",[3]; 15 g/Ha,80
same,"Herbicidal activity on a 0-100 scale, BRAPL",[3]; 30 g/Ha,90
same,"Herbicidal activity on a 0-100 scale, BRAPL",[3]; 250 g/Ha,90
same,"Herbicidal activity on a 0-100 scale, BRAPL",[3]; 500 g/Ha,90
same,"Herbicidal activity on a 0-100 scale, DIGSA",[4]; 15 g/Ha,0
same,"Herbicidal activity on a 0-100 scale, DIGSA",[4]; 30 g/Ha,0
same,"Herbicidal activity on a 0-100 scale, DIGSA",[4]; 60 g/Ha,0
same,"Herbicidal activity on a 0-100 scale, DIGSA",[4]; 125 g/Ha,10
same,"Herbicidal activity on a 0-100 scale, DIGSA",[4]; 250 g/Ha,40
same,"Herbicidal activity on a 0-100 scale, DIGSA",[4]; 500 g/Ha,30
same,"Herbicidal activity on a 0-100 scale, ELEIN",Eleisine indica (ELEIN); 15 g/Ha,0
same,"Herbicidal activity on a 0-100 scale, ELEIN",Eleisine indica (ELEIN); 30 g/Ha,0
same,"Herbicidal activity on a 0-100 scale, ELEIN",Eleisine indica (ELEIN); 60 g/Ha,70
same,"Herbicidal activity on a 0-100 scale, ELEIN",Eleisine indica (ELEIN); 125 g/Ha,80
same,"Herbicidal activity on a 0-100 scale, ELEIN",Eleisine indica (ELEIN); 250 g/Ha,90
same,"Herbicidal activity on a 0-100 scale, ELEIN",Eleisine indica (ELEIN); 500 g/Ha,90
same,Herbicidal activity GALAP,Galium aparine (GALAP); 15 g/Ha,10
same,Herbicidal activity GALAP,Galium aparine (GALAP); 30 g/Ha,20
same,Herbicidal activity GALAP,Galium aparine (GALAP); 125 g/Ha,30
same,Herbicidal activity GALAP,Galium aparine (GALAP); 250 g/Ha,30
same,Herbicidal activity GALAP,Galium aparine (GALAP); 500 g/Ha,90
same,Herbicidal activity HORVW,Hordeum vulgare (HORVW); 15 g/Ha,10
same,Herbicidal activity HORVW,Hordeum vulgare (HORVW); 30 g/Ha,10
same,Herbicidal activity HORVW,Hordeum vulgare (HORVW); 60 g/Ha,20
same,Herbicidal activity HORVW,Hordeum vulgare (HORVW); 125 g/Ha,20
same,Herbicidal activity HORVW,Hordeum vulgare (HORVW); 250 g/Ha,30
same,Herbicidal activity HORVW,Hordeum vulgare (HORVW); 500 g/Ha,60
same,Herbicidal activity IPOHE,[5]; 15 g/Ha,100
same,Herbicidal activity IPOHE,[5]; 30 g/Ha,100
same,Herbicidal activity IPOHE,[5]; 60 g/Ha,100
same,Herbicidal activity IPOHE,[5]; 125 g/Ha,100
same,Herbicidal activity IPOHE,[5]; 250 g/Ha,100
same,Herbicidal activity IPOHE,[5]; 500 g/Ha,100
same,Herbicidal activity KCHSC,Kochia scoparia (KSHSC); 15 g/Ha,10
same,Herbicidal activity KCHSC,Kochia scoparia (KSHSC); 30 g/Ha,20
same,Herbicidal activity KCHSC,Kochia scoparia (KSHSC); 60 g/Ha,50
same,Herbicidal activity KCHSC,Kochia scoparia (KSHSC); 125 g/Ha,60
same,Herbicidal activity KCHSC,Kochia scoparia (KSHSC); 250 g/Ha,60
same,Herbicidal activity KCHSC,Kochia scoparia (KSHSC); 500 g/Ha,60
same,"Herbicidal activity on a 0-100 scale, SETFA",Setaria faberi (SETFA) [6]; 15 g/Ha,0
same,"Herbicidal activity on a 0-100 scale, SETFA",Setaria faberi (SETFA) [6]; 30 g/Ha,20
same,"Herbicidal activity on a 0-100 scale, SETFA",Setaria faberi (SETFA) [6]; 60 g/Ha,30
same,"Herbicidal activity on a 0-100 scale, SETFA",Setaria faberi (SETFA) [6]; 125 g/Ha,60
same,"Herbicidal activity on a 0-100 scale, SETFA",Setaria faberi (SETFA) [6]; 250 g/Ha,60
same,"Herbicidal activity on a 0-100 scale, SETFA",Setaria faberi (SETFA) [6]; 500 g/Ha,80
same,Herbicidal activity SINAR,Sinapis arvensis (SINAR); 15 g/Ha,70
same,Herbicidal activity SINAR,Sinapis arvensis (SINAR); 30 g/Ha,80
same,Herbicidal activity SINAR,Sinapis arvensis (SINAR); 60 g/Ha,90
same,Herbicidal activity SINAR,Sinapis arvensis (SINAR); 125 g/Ha,90
same,Herbicidal activity SINAR,Sinapis arvensis (SINAR); 250 g/Ha,90
same,Herbicidal activity SINAR,Sinapis arvensis (SINAR); 500 g/Ha,90
same,Herbicidal activity TRZAW,[7]; 15 g/Ha,0
same,Herbicidal activity TRZAW,[7]; 30 g/Ha,0
same,Herbicidal activity TRZAW,[7]; 60 g/Ha,20
same,Herbicidal activity TRZAW,[7]; 125 g/Ha,30
same,Herbicidal activity TRZAW,[7]; 250 g/Ha,60
same,Herbicidal activity TRZAW,[7]; 500 g/Ha,70
same,Herbicidal activity VERPE,Veronica persica (VERPE); 15 g/Ha,70
same,Herbicidal activity VERPE,Veronica persica (VERPE); 30 g/Ha,80
same,Herbicidal activity VERPE,Veronica persica (VERPE); 60 g/Ha,90
same,Herbicidal activity VERPE,Veronica persica (VERPE); 125 g/Ha,90
same,Herbicidal activity VERPE,Veronica persica (VERPE); 250 g/Ha,100
same,Herbicidal activity VERPE,Veronica persica (VERPE); 500 g/Ha,100
